Assay [1] concerns the target T1, HCV NS5B polymerase (NS5BΔCT21, from HCV-Con 1 isolate, genotype 1b) (Hepatitis C virus genotype 1b, UniProt Q9WMX2).
T1 construct: A soluble C-terminal 21-amino acid truncated NS5B enzyme form; polyhistidine (C); made in house; host or cells: Escherichia coli
Description: HCV NS5B Polymerase Inhibition Assay. It counts as biochemical. The settings on record: NS5B polymerase inhibition, [33P]-CTP incorporation, 22° C. for 2 hours; read-out: IC50. An excerpt:
A chemically synthesized 75-mer version, designated DCoH75, whose sequence matches the 3′-end of D-RNA, and DCoH75ddC, where the 3′-terminal cytidine of DCoH75 is replaced by dideoxycytidine, were used for assaying the NS5B enzyme activity as described in Ferrari et al., 12th International Symposium on HCV and Related Viruses, P-306 (2005). The sequence of the template RNA was: 5′-UGUGCCGGUCUUUCUGAACGGGAUAUAAACCUGGCCAGCUUCAUCGAACAAGUUGCCGUGUCUAUGACAUAGAUC-3′. A soluble C-terminal 21-amino acid truncated NS5B enzyme form (NS5BΔCT21, from HCV-Con 1 isolate, genotype 1b, Genbank accession number AJ238799) was produced and purified from Escherichia coli as C-terminal polyhistidine-tagged fusion protein as described in Ferrari et al., J. Virol. 73:1649-1654 (1999). A typical assay contained 20 mM Hepes pH 7.3, 10 mM MgCl2, 60 mM NaCl, 100 μg/ml BSA, 20 units/ml RNasin, 7.5 mM DTT, 0.1 μM ATP/GTP/UTP, 0.026 μM CTP, 0.25 mM GAU, 0.03 μM RNA template, 20 μCi/ml [^33P]-CTP, 2% DMSO, and 30 or 150 nM NS5B enzyme. Reactions were incubated at 22° C. for 2 hours, then stopped by adding 150 mM EDTA, washed in DE81 filter plate in 0.5M di-basic sodium phosphate buffer, pH 7.0, and counted using Packard TopCount after the addition of scintillation cocktail. Polynucleotide synthesis was monitored by the incorporation of radiolabeled CTP. The effect of the Compounds of Formula (I) on the polymerase activity was evaluated by adding various concentrations of a Compound of Formula (I), typically in 10 serial 2-fold dilutions, to the assay mixture. The starting concentrations ranged from 200 μM to 1 μM. An IC50 value for the inhibitor, defined as the compound concentration that provides 50% inhibition of polymerase activity, was determined by fitting the cpm data to the Hill equation Y=100/(1+10^((LogIC50-X)*HillSlope)), where X is the logarithm of compound concentration, and Y is the % inhibition. Ferrari et al., 12th International Symposium on HCV and Related Viruses, P-306 (2005) described in detail this assay procedure. It should be noted that such an assay as described is exemplary and not intended to limit the scope of the invention. The skilled practitioner can appreciate that modifications including but not limited to RNA template, primer, nucleotides, NS5B polymerase form, buffer composition, can be made to develop similar assays that yield the same result for the efficacy of the compounds and compositions described in the invention.
NS5B polymerase inhibition data for selected Compounds of Formula (I) is provided below in Table 2, wherein the compound numbers correspond to the compound numbering set forth in the above specification.

Assay [2] deals with HCV replicon cells (replicon RNA level). Description: Cell-Based HCV Replicon Assay. The conditions noted are these: Hepatitis C virus, 72 h; replicon RNA level by real time PCR (Taqman), cells harvested on day 3; read-out: EC50. The protocol:
To measure cell-based anti-HCV activity of the a Compound of Formula (I), replicon cells were seeded at 5000 cells/well in 96-well collagen I-coated Nunc plates in the presence of the Compound of Formula (I). Various concentrations of a Compound of Formula (I), typically in 10 serial 2-fold dilutions, were added to the assay mixture, with the starting concentration ranging from 250 μM to 1 μM. The final concentration of DMSO was 0.5%, fetal bovine serum was 5%, in the assay media. Cells were harvested on day 3 by the addition of 1× cell lysis buffer (Ambion cat #8721). The replicon RNA level was measured using real time PCR (Taqman assay). The amplicon was located in 5B. The PCR primers were: 5B.2F, ATGGACAGGCGCCCTGA; 5B.2R, […]; the probe sequence was FAM-labeled CACGCCATGCGCTGCGG. GAPDH RNA was used as endogenous control and was amplified in the same reaction as NS5B (multiplex PCR) using primers and VIC-labeled probe recommended by the manufacturer (PE Applied Biosystem). The real-time RT-PCR reactions were run on ABI PRISM 7900HT Sequence Detection System using the following program: 48° C. for 30 min, 95° C. for 10 min, 40 cycles of 95° C. for 15 sec, 60° C. for 1 min. The ΔCT values (CT5B-CTGAPDH) were plotted against the concentration of test compound and fitted to the sigmoid dose-response model using XLfit4 (MDL). EC50 was defined as the concentration of inhibitor necessary to achieve ΔCT=1 over the projected baseline; EC90 the concentration necessary to achieve ΔCT=3.2 over the baseline. Alternatively, to quantitate the absolute amount of replicon RNA, a standard curve was established by including serially diluted T7 transcripts of replicon RNA in the Taqman assay. All Taqman reagents were from PE Applied Biosystems. Such an assay procedure was described in detail in e.g. Malcolm et al., Antimicrobial Agents and Chemotherapy 50: 1013-1020 (2006).
HCV Replicon assay data for selected Compounds of Formula (I) is provided below in Table 1, wherein the compound numbers correspond to the compound numbering set forth in the above specification.
A general note: Replicon systems follow genome replication, usually without infectious particles.

Our source for the IC50 and EC50 values is US8557848B2, “4,5-ring annulated indole derivatives for treating or preventing of HCV and related viral infections” (Merck Sharp & Dohme Corp., priority 2006, dated 2013).

Usually IC50 stands for the concentration that gives 50% inhibition. For orientation: EC50 means the midpoint of the concentration-response curve. As for `CCS(=O)(=O)NC(=O)c1c(-c2ccc[nH]c2=O)c2c3occc3ccc2n1Cc1cc(F)ccc1F` [Compound 57], the half-maximal inhibitory concentration (IC50) in assay [1] is below 25 nM. In assay [2], the EC50 was below 500 nM.

On to `Cc1nn(C)c2nc(Cl)c(Cn3c(C(=O)O)c(-c4ccc[nH]c4=O)c4c5occc5c(F)cc43)cc12` [Compound 143], for which, in assay [1], the IC50 was below 25 nM. In assay [2], the EC50 was below 500 nM.

For the molecule `CS(=O)(=O)NC(=O)c1c(-c2ccc[nH]c2=O)c2c3occc3c(F)cc2n1Cc1ccc2[nH]c(C(F)(F)F)nc2c1` [Compound 208], in assay [1], the IC50 was below 25 nM. The EC50 in assay [2] is below 500 nM.

Regarding `O=C(O)c1c(-c2ccc[nH]c2=O)c2c3occc3ccc2n1Cc1cc2ccccc2nc1Cl` [Compound 116], the IC50 in assay [1] is below 25 nM. For the same molecule, in assay [2], the EC50 is below 500 nM.

With `CS(=O)(=O)NC(=O)c1c(-c2ccc[nH]c2=O)c2c3occc3c(F)cc2n1Cc1cc(F)ccc1F` [Compound 150], the IC50 in assay [1] was below 25 nM. For the same molecule, the EC50 in assay [2] was below 500 nM.

As for `O=C(NS(=O)(=O)C1CC1)c1c(-c2ccc[nH]c2=O)c2c3occc3c(F)cc2n1Cc1cc(C(O)CO)ccc1F` (stereo not shown) [Compound 207], in assay [1], the IC50 is below 25 nM. Moreover, in assay [2], the concentration giving a half-maximal response (EC50) is below 500 nM.

For `O=C(O)c1ccc(F)c(Cn2c(C(=O)O)c(-c3ccc[nH]c3=O)c3c4occc4c(F)cc32)c1` [Compound 108], the IC50 in assay [1] was below 25 nM. Besides, the EC50 in assay [2] lay within 500 to 1500 nM.

Regarding `CS(=O)(=O)NC(=O)c1c(-c2ccc[nH]c2=O)c2c3occc3c(F)cc2n1Cc1cc2nc[nH]c2cc1Cl` [Compound 182], the half-maximal inhibitory concentration (IC50) in assay [1] was below 25 nM. Besides, the EC50 in assay [2] is below 500 nM.

For the molecule `CS(=O)(=O)NC(=O)c1c(-c2ccc[nH]c2=O)c2c3occc3ccc2n1Cc1ccccc1F` [Compound 4], the IC50 in assay [1] was below 25 nM. For the same molecule, the EC50 in assay [2] was below 500 nM.

Regarding `O=C(NS(=O)(=O)C1CC1)c1c(-c2ccc[nH]c2=O)c2c3occc3c(F)cc2n1Cc1ccc2[nH]c(C(F)(F)F)nc2c1` [Compound 222], the half-maximal inhibitory concentration (IC50) in assay [1] is below 25 nM. Further, the EC50 in assay [2] was below 500 nM.

As for `Cc1ccc(Cn2c(C(=O)NS(C)(=O)=O)c(-c3ccc[nH]c3=O)c3c4occc4ccc32)c(C)c1` [Compound 60], the IC50 in assay [1] is below 25 nM. Moreover, in assay [2], the concentration giving a half-maximal response (EC50) is below 500 nM.

Turning to `Cc1cccc(Cn2c(C(=O)O)c(-c3ccc[nH]c3=O)c3c4occ(C)c4ccc32)c1F` [Compound 48], the half-inhibitory concentration (IC50) in assay [1] was above 100 nM. The EC50 in assay [2] is above 1500 nM.

For `CS(=O)(=O)NC(=O)c1c(-c2ccc[nH]c2=O)c2c3occc3c(F)cc2n1Cc1cc2cccc(Br)c2o1` [Compound 218], in assay [1], the IC50 was below 25 nM. Also, the EC50 in assay [2] is above 1500 nM.

Turning to `CS(=O)(=O)NC(=O)c1c(-c2ccc[nH]c2=O)c2c3occc3c(F)cc2n1Cc1cc2ccccc2nc1Cl` [Compound 194], the IC50 in assay [1] is below 25 nM. For the same molecule, the half-maximal effective concentration (EC50) in assay [2] is below 500 nM.

As for `CCc1coc2c1ccc1c2c(-c2ccc[nH]c2=O)c(C(=O)NS(C)(=O)=O)n1Cc1cc(F)ccc1F` [Compound 69], the IC50 in assay [1] is above 100 nM. Further, the EC50 in assay [2] is below 500 nM.

Regarding `CC(C)S(=O)(=O)NC(=O)c1c(-c2ccc[nH]c2=O)c2c3occc3ccc2n1Cc1ccccc1F` [Compound 64], the IC50 in assay [1] is below 25 nM. In assay [2], the EC50 was below 500 nM.

Regarding `CCS(=O)(=O)NC(=O)c1c(-c2ccc[nH]c2=O)c2c3occc3ccc2n1Cc1ccccc1F` [Compound 68], the IC50 in assay [1] is below 25 nM. The EC50 in assay [2] is below 500 nM.

`Nc1n[nH]c2ccc(Cn3c(C(=O)O)c(-c4ccc[nH]c4=O)c4c5occc5c(F)cc43)cc12` [Compound 100]: the IC50 in assay [1] was below 25 nM. Also, the concentration for a half-maximal effect (EC50) in assay [2] is below 500 nM.

Consider `CSc1ccc2cc(Cn3c(C(=O)O)c(-c4ccc[nH]c4=O)c4c5occc5c(F)cc43)c(Cl)nc2c1` [Compound 168], for which, in assay [1], the IC50 was below 25 nM. The EC50 in assay [2] was below 500 nM.

For `O=C(NS(=O)(=O)C1CC1)c1ccc(F)c(Cn2c(C(=O)NS(=O)(=O)C3CC3)c(-c3ccc[nH]c3=O)c3c4occc4c(F)cc32)c1` [Compound 225], the IC50 in assay [1] is below 25 nM. For the same molecule, the EC50 in assay [2] lay within 500 to 1500 nM.

With `NC(=O)c1cc(Cn2c(C(=O)O)c(-c3ccc[nH]c3=O)c3c4c(c(F)cc32)CCO4)cs1` [Compound 99], in assay [1], the IC50 is below 25 nM. Also, in assay [2], the EC50 fell in the range of 500 to 1500 nM.

On to `NC(=O)c1cnc(F)c(Cn2c(C(=O)NS(=O)(=O)C3CC3)c(-c3ccc[nH]c3=O)c3c4c(c(F)cc32)CCO4)c1` [Compound 200], for which the half-inhibitory concentration (IC50) in assay [1] is below 25 nM. Besides, the 50% effective concentration (EC50) in assay [2] was below 500 nM.

For the molecule `O=C(O)c1c(-c2ccc[nH]c2=O)c2c3occ(Cl)c3ccc2n1Cc1ccccc1F` [Compound 45], in assay [1], the IC50 is below 25 nM. For the same molecule, the EC50 in assay [2] is below 500 nM.

As for `CS(=O)(=O)NC(=O)c1c(-c2ccc[nH]c2=O)c2c3c(ccc2n1Cc1cc(F)ccc1F)CCC3` [Compound 12], in assay [1], the IC50 was below 25 nM. Moreover, in assay [2], the concentration giving a half-maximal response (EC50) lay within 500 to 1500 nM.

On to `O=C(O)c1c(-c2ccc[nH]c2=O)c2c3sccc3ccc2n1Cc1cc(F)ccc1F` [Compound 33], for which the IC50 in assay [1] fell in the range of 25 to 100 nM. Further, the EC50 in assay [2] is above 1500 nM.

Take `Cc1cc2ccc3c(c(-c4ccc[nH]c4=O)c(C(=O)O)n3Cc3cc(F)ccc3F)c2o1` [Compound 85]: the IC50 in assay [1] is below 25 nM. Also, the concentration giving a half-maximal response (EC50) in assay [2] was above 1500 nM.

Regarding `O=C(O)c1c(-c2ccc[nH]c2=O)c2c3occc3c(F)cc2n1Cc1cc2nc[nH]c2cc1F` [Compound 105], the IC50 in assay [1] was below 25 nM. For the same molecule, the half-maximal effective concentration (EC50) in assay [2] was below 500 nM.

For `O=C(O)c1c(-c2ccc[nH]c2=O)c2c3occc3c(F)cc2n1Cc1cc[nH]c(=O)c1` [Compound 78], the IC50 in assay [1] was in the range of 25 to 100 nM. Besides, the concentration for a half-maximal effect (EC50) in assay [2] is below 500 nM.

As for `O=C(O)c1c(-c2ccc[nH]c2=O)c2c3ccoc3ccc2n1Cc1ccccc1F` [Compound 39], in assay [1], the IC50 is 25 to 100 nM. The EC50 in assay [2] is above 1500 nM.

Turning to `NC(=O)c1cccc(Cn2c(C(=O)O)c(-c3ccc[nH]c3=O)c3c4occc4c(F)cc32)c1` [Compound 92], the IC50 in assay [1] is below 25 nM. Moreover, the EC50 in assay [2] was below 500 nM.

Consider `CS(=O)(=O)NC(=O)c1c(-c2ccc[nH]c2=O)c2c3occc3c(F)cc2n1Cc1cc(C(N)=O)ccc1F` [Compound 175], for which, in assay [1], the IC50 is below 25 nM. Further, the EC50 in assay [2] was below 500 nM.

Take `O=C(NS(=O)(=O)C1CC1)c1c(-c2ccc[nH]c2=O)c2c3occc3c(F)cc2n1Cc1cc(Cl)nc2ccccc12` [Compound 210]: the IC50 in assay [1] was below 25 nM. In addition, the 50% effective concentration (EC50) in assay [2] is 500 to 1500 nM.
